Results from US20250228858A1, “ANTI-CANCER COMBINATION THERAPY” (Boehringer Ingelheim International GmbH, priority 2023, published 2025).

Columns and labels:
[1] = system: T-DXd-resistant NCI-N87 cells; experiment: Proliferation assay (CellTiter Glo), T-DXd resistant NCI-N87 cells; assay type: cell-based, human; details: 5 days of incubation, in vitro
Method: Per well, 1000 cells are seeded in 40 μL medium in white, sterile 384-well culture plates (TC-treated; PerkinElmer #6007680) and incubated overnight in a humidified incubator at 37° C. and 5% CO2. 0.1% DMSO-control or serial compound dilution in triplicates are added. […] After 5 days of incubation with test compounds, the cells plates are measured upon addition of CellTiter Glo Luminescent Cell Viability Reagent (Promega, #G9243) to assess cell viability. The plates are placed on a shaker for five minutes and additionally incubated for 10 minutes at room temperature to induce cell lysis and to stabilize the luminescent signal. The luminescent signal of each well is measured in an EnSpire Multilabel Plate Reader 658 (PerkinElmer). The dose response curves are fit and visualized using Boehringer Ingelheim's proprietary software MegaLab and PRISM (GraphPad Inc.).

[2] = system: HER2-overexpressing human breast cancer cell line HCC1954; assay type: in vivo; details: zongertinib 20 mg/kg qdx21 p.o., T-DXd 1 mg/kg q21dx1 i.v., pertuzumab 20 mg/kg q7dx3 i.p., alone or combined
Method: Day 1 was the first day, day 21 the last day of treatment and final day of analysis.
Cells are cultured in T75, T175 and 5-Layer tissue culture flasks at 37° C. and 5% CO2.
The statistical evaluation of the tumor volume and the body weight is conducted on day 21 (last day of the study). Apart from this, statistical analysis was performed as described in Example 1 (see paragraph 1.1.7), with no evaluation of tumor growth after stop of treatment.

[3] = system: HER2-overexpressing human ovarian cell line SK-OV-3; experiment: SK-OV-3 subcutaneous xenograft, zongertinib with T-DXd; assay type: in vivo, NMRI-Foxn1^nu mice
Method: The study is performed in human ovarian cancer cell line SK-OV-3 grown as subcutaneous xenografts in NMRI-Foxn1^nu mice. Day 1 was the first day, day 20 the last day of treatment and final day of analysis.
SK-OV-3 is a HER2-overexpressing human ovarian cancer cell line that can be obtained from ATCC (lot HTB-77). Cells are cultured in T75, T175 and 5-Layer tissue culture flasks at 37° C. and 5% CO2. The medium used is IMDM (PAN-Biotech, #P04-200150) supplemented with 10% FCS (Cytiva HyClone Characterized FBS, SH30084.03n). Cultures are split twice weekly with a ratio of 1:2-1:3.
To establish subcutaneous tumors, SK-OV-3 cells are harvested by centrifugation, washed and resuspended in PBS+5% FCS at 5×10^7 cells/ml. 100 μl cell suspension containing 5×10^6 cells is injected subcutaneously into the right flank of mice (1 site per mouse).
Apart from this, statistical analysis was performed as described in Example 1 (see paragraph 1.1.7), with no evaluation of tumor growth after stop of treatment.

C=CC(=O)NC1CCN(c2ncc3ncnc(Nc4ccc(Oc5ccc6c(c5)ncn6C)c(C)c4)c3n2)CC1 [Zongertinib, N-{1-[8-({3-methyl-4-[(1-methyl-1H-1,3-benzodiazol-5-yl)oxy]phenyl}amino)-[1,3]diazino [5,4-d]pyrimidin-2-yl]piperidin-4-yl}prop-2-enamide]
difference in IC50 between parental and T-DXd-resistant NCI-N87 cells [1]: less than 10 fold
sensitivity (dose response, cell viability) [1]: sensitive
TGI ([2]; day 21): 68%
Regressions >30% ([2]; tumors regressed/total (partial response)): 0/8
TGI ([3]; day 15, zongertinib 10 mg/kg qdx20 p.o., T-DXd 7 mg/kg q21dx1 i.v., alone or combined): 91%
Regressions >30% ([3]; day 20, tumors regressed/total (partial response), zongertinib 10 mg/kg qdx20 p.o., T-DXd 7 mg/kg q21dx1 i.v., alone or combined): 0/8
stable diseases ([3]; day 20, zongertinib 10 mg/kg qdx20 monotherapy): 2 out of 8
